Assay results from patent US7897397B2, “Cell fusion promoter and utilization of the same” (Kowa Company, Ltd., priority 2004, dated 2011).

System: myocardial cell/bone marrow cell co-culture system
Assay: Cell fusion in myocardial cell/bone marrow cell co-culture, fused cells (MF20- and EGFP-positive) counted by flow cytometry
Format: cell-based, rat
Description: From a 1- to 2-day-old Wistar-Kyoto rat, the heart was removed, and myocardial cells were isolated therefrom and cultured. Bone marrow mononuclear cells separated from the bone marrow of an EGFP (enhanced green fluorescent protein) transgenic rat were introduced into the myocardial cells, followed by co-culture thereof.
Flow cytometry was used to quantitatively determine the number of these fused cells. The cells were fixed with paraformaldehyde in the same manner as above, then fluorescence-immunostained in a suspended state with primary antibody MF20, a biotin-conjugated anti-mouse antibody as secondary antibody and a streptavidin/PerCP-cye5.5 conjugate as tertiary antibody, and analyzed by flow cytometry. 50,000 cells were analyzed for each analysis. […] The cells in the gate R4 in FIG. 2 (D) were confirmed to be fused cells positive to both MF20 and EGFP.
Then, according to a similar manner to that described above, ATP was added at a concentration of 0 mM (control), 1 mM, 2 mM and 3 mM respectively to the myocardial cell/bone marrow cell co-culture system, and the number of fused cells was examined. Each group at the predetermined concentration of ATP was stained in the same manner as in FIG. 2 and analyzed by flow cytometry. The results are shown in the graphs in FIGS. 3A-D.
The result is shown in the graph in FIG. 4. In FIG. 4, the ratio (%) of the number of fused cells to the total number of cells is shown on the ordinate, and the concentration of ATP (0 mM, 1 mM, 2 mM and 3 mM) is shown on the abscissa. The asterisk (*) in FIG. 4 indicates significance (p<0.05) relative to the control group. As a result, it was confirmed that only about 0.1% fused cells were formed in the control group in the absence of ATP, while about 0.5% fused cells that are about 5-times as much as in the control group were formed in the group to which 1 or 2 mM ATP had been added.
According to the method of Minamino et al. (Minamino T., Gaussin V., DeMayo F. J., et al., Circ. Res. 2001; 88:587-592), the heart was removed from a 1- to 2-day-old Wistar-Kyoto rat and myocardial cells were isolated. […]
Then, the number of the fused cells was quantitatively determined by flow cytometry. After 1 week of co-culture, the cells were treated with trypsin and fixed with paraformaldehyde in the same manner as above, fluorescence-immunostained in a suspended state with primary antibody MF20 (labeled with PerCP-cye5.5 and captured as being positive to FL-3), biotin-conjugated anti-mouse Ig's antibody (BD Pharmingen) as secondary antibody, and streptavidin/PerCP-cye5.5 conjugate (BD Pharmingen) as tertiary antibody, and analyzed by flow cytometry. 50,000 cells were analyzed for each analysis. […]

For `Nc1ncnc2c1ncn2[C@@H]1O[C@H](COP(=O)(O)OP(=O)(O)OP(=O)(O)O)[C@@H](O)[C@H]1O` [ATP, adenosine 5′-triphosphate], the “number of the fused cells compared with the control group (in words)” value (1 mM or 2 mM ATP added, flow cytometry, 50,000 cells analyzed) was “higher than in the control group”, the “fused cells relative to the control group (times as much)” value (1 or 2 mM ATP added vs control in the absence of ATP) was “about 5 times” and the “ratio (%) of the number of fused cells to the total number of cells” value (1 or 2 mM ATP added, 1 week of co-culture, control without ATP about 0.1%) was “about 0.5%”. For the same compound, the “ratio of the number of fused cells as compared with the control group (in words)” value (1 or 2 mM ATP added, p<0.05 relative to the control group) was “increased significantly”.
